Results on three molecules are retold here after patent US20100063065A1 (Inpharmatica Limited, priority 2005, published 2010).

The assay deals with T1, PPARδ (Homo sapiens, UniProt Q03181).
T1 construct: fused to amino acids 147-441 of PPARδ downstream of CMV promoter; expressed in transfected cells; host or cells: HEK293 cells, transiently transfected with pFACMV-PPARδ using Fugene
T1 sequence (Q03181 147-441): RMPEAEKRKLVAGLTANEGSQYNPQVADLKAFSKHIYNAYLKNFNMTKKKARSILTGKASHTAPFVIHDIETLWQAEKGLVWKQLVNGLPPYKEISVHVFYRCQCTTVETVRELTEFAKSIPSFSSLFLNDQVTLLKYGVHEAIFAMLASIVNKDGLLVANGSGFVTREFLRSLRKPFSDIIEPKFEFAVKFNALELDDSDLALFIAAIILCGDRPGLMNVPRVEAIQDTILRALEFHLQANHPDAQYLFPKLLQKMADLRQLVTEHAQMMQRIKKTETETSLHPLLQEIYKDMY
As to the kind of experiment: Transactivation assay (PPARδ GAL4 assay) in transiently transfected HEK293 cells. Type of assay: cell-based. To be noted: luciferase reporter, Table 2. Summed up: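 HEK293 cells transiently co-transfected with GAL4 DBD (aa 1-147)–PPARδ (aa 147-441) fusion and 5×GAL4-luciferase reporter, then exposed 24 h to compound (final 0-30 μM) in OptiMEM at 37° C. Luminescence read; activity as percent of GW501516 control, EC50 from sigmoidal dose-response fit.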

In general, EC50 refers to the concentration giving half of the maximal effect. The low end stands for higher potency in that assay, the high end for lower potency in that assay.

Where only a bound is given, the exact number is not on record here.

With `CCc1cc(C(=O)c2ccc(OC(F)(F)F)cc2)c(NC(=O)CN(C)C(C)(C)C(=O)O)s1` [Example 196, 2-({[5-Ethyl-3-(4-trifluoromethoxy-benzoyl)-thiophen-2-ylcarbamoyl]-methyl}-methyl-amino)-2-methyl-propionic acid], the EC50 was 1 to 30 µM. `CCc1cc(C(=O)c2ccc(OC(F)(F)F)cc2)c(NC(=O)CN(C)C2(C(=O)O)CC2)s1` [Example 197, 1-({[5-Ethyl-3-(4-trifluoromethoxy-benzoyl)-thiophen-2-ylcarbamoyl]-methyl}-methyl-amino)-cyclopropanecarboxylic acid] returned an EC50 of 0.1 to 1 µM. To `CCc1cc(C(=O)c2ccc(OC(F)(F)F)cc2)c(NC(=O)CN(C)[C@@H](C)C(=O)O)s1` [Example 198, (S)-2-({[5-Ethyl-3-(4-trifluoromethoxy-benzoyl)-thiophen-2-ylcarbamoyl]-methyl}-methyl-amino)-propionic acid] belongs < 0.1 µM.
